Article PMC8185074, “Anchor extension: a structure-guided approach to design cyclic peptides targeting enzyme active sites” (Nature Communications, 2021)
Peptide text beside a SMILES is read from it.

Columns and labels:
Type in all cases: biochemical
HDAC1 = target: T1, HDAC1 (Homo sapiens, UniProt Q13547); test: HDAC1 inhibition, full IC50 measurement (Reaction Biology; fluorogenic p53 peptide RHKK(Ac)AMC); conditions: t1/t2 replicates
T1 construct: purchased Reaction Biology Corporation (assay run by the CRO)
T1 sequence (Q13547 whole entry): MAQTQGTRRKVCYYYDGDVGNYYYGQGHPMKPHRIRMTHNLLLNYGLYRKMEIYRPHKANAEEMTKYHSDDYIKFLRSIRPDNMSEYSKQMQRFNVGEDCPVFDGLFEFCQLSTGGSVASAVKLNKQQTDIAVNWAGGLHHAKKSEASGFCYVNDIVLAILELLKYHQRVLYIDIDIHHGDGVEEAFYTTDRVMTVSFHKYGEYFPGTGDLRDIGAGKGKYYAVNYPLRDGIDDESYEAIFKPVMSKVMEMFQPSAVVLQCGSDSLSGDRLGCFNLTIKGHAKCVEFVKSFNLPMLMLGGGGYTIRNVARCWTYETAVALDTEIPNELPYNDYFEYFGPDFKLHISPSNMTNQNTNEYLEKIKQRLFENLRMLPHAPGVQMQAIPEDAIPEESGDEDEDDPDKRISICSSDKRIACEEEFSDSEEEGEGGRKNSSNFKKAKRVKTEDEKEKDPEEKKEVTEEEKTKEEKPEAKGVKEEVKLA
Method in brief: (§1)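 Reaction: enzyme plus acoustically dispensed peptide inhibitor, 50 μM RHKK(Ac)AMC substrate, pH 8.0 Tris buffer with BSA and 1% DMSO, 1 h, 30 °C. Duplicates averaged.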

HDAC6 = target: T2, HDAC6 (Homo sapiens, UniProt Q9UBN7); test: HDAC6 inhibition, full IC50 measurement (Reaction Biology; fluorogenic p53 peptide RHKK(Ac)AMC)
T2 construct: purchased Reaction Biology Corporation (assay run by the CRO)
T2 sequence (Q9UBN7 1-1215): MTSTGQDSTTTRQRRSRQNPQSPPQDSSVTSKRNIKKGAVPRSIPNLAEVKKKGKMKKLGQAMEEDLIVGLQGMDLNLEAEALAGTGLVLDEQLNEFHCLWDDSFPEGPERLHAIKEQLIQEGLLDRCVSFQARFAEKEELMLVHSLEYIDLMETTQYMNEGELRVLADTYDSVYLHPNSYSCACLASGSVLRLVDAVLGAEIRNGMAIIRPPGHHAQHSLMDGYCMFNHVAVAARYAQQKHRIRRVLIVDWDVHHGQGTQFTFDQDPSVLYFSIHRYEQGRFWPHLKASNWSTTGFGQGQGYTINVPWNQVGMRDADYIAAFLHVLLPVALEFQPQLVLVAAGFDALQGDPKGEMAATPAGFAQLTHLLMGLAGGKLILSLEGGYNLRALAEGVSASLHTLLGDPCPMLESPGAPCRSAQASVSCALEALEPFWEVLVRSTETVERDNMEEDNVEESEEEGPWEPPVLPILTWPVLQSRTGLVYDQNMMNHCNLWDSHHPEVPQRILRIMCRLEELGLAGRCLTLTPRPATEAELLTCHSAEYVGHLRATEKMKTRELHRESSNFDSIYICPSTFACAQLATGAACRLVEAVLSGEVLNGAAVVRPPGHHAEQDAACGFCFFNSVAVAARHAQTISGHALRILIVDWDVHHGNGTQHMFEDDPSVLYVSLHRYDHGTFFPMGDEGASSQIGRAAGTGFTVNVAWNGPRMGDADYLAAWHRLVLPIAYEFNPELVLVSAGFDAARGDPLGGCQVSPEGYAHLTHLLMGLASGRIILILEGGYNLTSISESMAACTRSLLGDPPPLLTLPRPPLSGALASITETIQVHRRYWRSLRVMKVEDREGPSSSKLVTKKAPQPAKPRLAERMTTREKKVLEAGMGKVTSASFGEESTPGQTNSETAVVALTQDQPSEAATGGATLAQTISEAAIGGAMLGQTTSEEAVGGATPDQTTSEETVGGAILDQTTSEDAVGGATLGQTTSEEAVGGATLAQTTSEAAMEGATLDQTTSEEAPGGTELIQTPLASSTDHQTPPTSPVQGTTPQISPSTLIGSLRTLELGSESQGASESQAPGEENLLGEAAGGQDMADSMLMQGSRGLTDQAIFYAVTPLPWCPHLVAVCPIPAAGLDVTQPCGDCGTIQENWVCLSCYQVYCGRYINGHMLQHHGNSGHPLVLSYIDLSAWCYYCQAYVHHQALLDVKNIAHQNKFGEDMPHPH
Method in brief: as §1

HDAC3 = target: T3, HDAC3 (Homo sapiens, UniProt O15379); test: HDAC3 inhibition, full IC50 measurement (Reaction Biology; fluorogenic p53 peptide RHKK(Ac)AMC)
T3 construct: purchased Reaction Biology Corporation (assay run by the CRO)
T3 sequence (O15379 whole entry): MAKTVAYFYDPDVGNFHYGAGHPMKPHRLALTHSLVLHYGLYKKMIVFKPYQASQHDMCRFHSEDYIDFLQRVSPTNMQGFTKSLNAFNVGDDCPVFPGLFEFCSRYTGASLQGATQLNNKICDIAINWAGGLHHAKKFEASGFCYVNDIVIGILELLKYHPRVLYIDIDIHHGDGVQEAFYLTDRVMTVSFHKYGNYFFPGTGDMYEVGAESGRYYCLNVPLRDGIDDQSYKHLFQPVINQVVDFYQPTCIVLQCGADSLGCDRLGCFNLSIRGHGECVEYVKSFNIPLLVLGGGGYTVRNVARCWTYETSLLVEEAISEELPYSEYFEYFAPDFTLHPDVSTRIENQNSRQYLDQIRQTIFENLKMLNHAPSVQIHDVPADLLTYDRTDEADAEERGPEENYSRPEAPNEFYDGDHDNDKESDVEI
T3 sequence (Q9Y618 395-489 partner limits assumed): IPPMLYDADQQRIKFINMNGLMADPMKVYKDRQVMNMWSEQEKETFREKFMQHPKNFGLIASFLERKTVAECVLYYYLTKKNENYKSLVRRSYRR
Method in brief: as §1

For `N=C(N)NCCC[C@H]1NC(=O)[C@@H]2CCCN2C(=O)[C@H](CO)NC(=O)[C@@H](Cc2c[nH]cn2)NC(=O)[C@H](CCCCCS)NC(=O)[C@H](CCCCN)NC(=O)[C@H](Cc2ccc(O)cc2)NC(=O)[C@H]2CCCN2C(=O)[C@@H](CCC(N)=O)NC1=O` [des3.1.0, SHA-dHis-Ser-Pro-dArg-dGln-dPro-Tyr-Lys] (HELM PEPTIDE1{K.[O=C([C@H](CCCCCS)N[*:1])[*:2]].[dH].S.P.[dR].[dQ].[dP].Y}$PEPTIDE1,PEPTIDE1,1:R1-9:R2$$$V2.0), the “HDAC1 activity raw data (signal)” value (HDAC1; peptide conc. 1.00E-05 M, listed as des3.1.0_t1) was 22305, the “HDAC1 activity raw data (signal)” value (HDAC1; peptide conc. 1.00E-05 M, listed as des3.1.0_t2) was 40732 and the “HDAC1 activity raw data (signal)” value (HDAC1; peptide conc. 1.11E-06 M, listed as des3.1.0_t1) was 248828. The “HDAC1 activity raw data (signal)” value (HDAC1; peptide conc. 1.11E-06 M, listed as des3.1.0_t2) was 188355, the “HDAC1 activity raw data (signal)” value (HDAC1; peptide conc. 1.23E-07 M, listed as des3.1.0_t1) was 589648 and the “HDAC1 activity raw data (signal)” value (HDAC1; peptide conc. 1.23E-07 M, listed as des3.1.0_t2) was 563314. The “HDAC1 activity raw data (signal)” value (HDAC1; peptide conc. 1.37E-08 M, listed as des3.1.0_t1) was 723592, the “HDAC1 activity raw data (signal)” value (HDAC1; peptide conc. 1.37E-08 M, listed as des3.1.0_t2) was 777320 and the “HDAC1 activity raw data (signal)” value (HDAC1; peptide conc. 1.52E-09 M, listed as des3.1.0_t1) was 783325. The “HDAC1 activity raw data (signal)” value (HDAC1; peptide conc. 1.52E-09 M, listed as des3.1.0_t2) was 856547, the “HDAC1 activity raw data (signal)” value (HDAC1; peptide conc. 3.33E-06 M, listed as des3.1.0_t1) was 76346 and the “HDAC1 activity raw data (signal)” value (HDAC1; peptide conc. 3.33E-06 M, listed as des3.1.0_t2) was 86885. The “HDAC1 activity raw data (signal)” value (HDAC1; peptide conc. 3.70E-07 M, listed as des3.1.0_t1) was 352482, the “HDAC1 activity raw data (signal)” value (HDAC1; peptide conc. 3.70E-07 M, listed as des3.1.0_t2) was 387684 and the “HDAC1 activity raw data (signal)” value (HDAC1; peptide conc. 4.12E-08 M, listed as des3.1.0_t1) was 725312. For the same compound, the “HDAC1 activity raw data (signal)” value (HDAC1; peptide conc. 4.12E-08 M, listed as des3.1.0_t2) was 693516, the “HDAC1 activity raw data (signal)” value (HDAC1; peptide conc. 4.57E-09 M, listed as des3.1.0_t1) was 787632 and the “HDAC1 activity raw data (signal)” value (HDAC1; peptide conc. 4.57E-09 M, listed as des3.1.0_t2) was 874002. For the same compound, the “HDAC1 activity raw data (signal)” value (HDAC1; peptide conc. 5.08E-10 M, listed as des3.1.0_t1) was 778120, the “HDAC1 activity raw data (signal)” value (HDAC1; peptide conc. 5.08E-10 M, listed as des3.1.0_t2) was 831348 and the “HDAC6 activity raw data (signal)” value (HDAC6; Conc. 1.00E-05 M, t1) was 11537. For the same compound, the “HDAC6 activity raw data (signal)” value (HDAC6; Conc. 1.00E-05 M, t2) was 13038, the “HDAC6 activity raw data (signal)” value (HDAC6; Conc. 1.11E-06 M, t1) was 76742 and the “HDAC6 activity raw data (signal)” value (HDAC6; Conc. 1.11E-06 M, t2) was 90822. For the same compound, the “HDAC6 activity raw data (signal)” value (HDAC6; Conc. 1.23E-07 M, t1) was 159657, the “HDAC6 activity raw data (signal)” value (HDAC6; Conc. 1.23E-07 M, t2) was 168002 and the “HDAC6 activity raw data (signal)” value (HDAC6; Conc. 1.37E-08 M, t1) was 160112. For the same compound, the “HDAC6 activity raw data (signal)” value (HDAC6; Conc. 1.37E-08 M, t2) was 166776, the “HDAC6 activity raw data (signal)” value (HDAC6; Conc. 1.52E-09 M, t1) was 119928 and the “HDAC6 activity raw data (signal)” value (HDAC6; Conc. 1.52E-09 M, t2) was 158551. The “HDAC6 activity raw data (signal)” value (HDAC6; Conc. 3.33E-06 M, t1) was 37434, the “HDAC6 activity raw data (signal)” value (HDAC6; Conc. 3.33E-06 M, t2) was 38190 and the “HDAC6 activity raw data (signal)” value (HDAC6; Conc. 3.70E-07 M, t1) was 143033. The “HDAC6 activity raw data (signal)” value (HDAC6; Conc. 3.70E-07 M, t2) was 130317, the “HDAC6 activity raw data (signal)” value (HDAC6; Conc. 4.12E-08 M, t1) was 144961 and the “HDAC6 activity raw data (signal)” value (HDAC6; Conc. 4.12E-08 M, t2) was 163766. The “HDAC6 activity raw data (signal)” value (HDAC6; Conc. 4.57E-09 M, t1) was 147758, the “HDAC6 activity raw data (signal)” value (HDAC6; Conc. 4.57E-09 M, t2) was 164399 and the “HDAC6 activity raw data (signal)” value (HDAC6; Conc. 5.08E-10 M, t1) was 111941. The “HDAC6 activity raw data (signal)” value (HDAC6; Conc. 5.08E-10 M, t2) was 129043, the “HDAC3 activity raw data (signal)” value (HDAC3; Conc. 1.00E-05 M, t1) was 46436 and the “HDAC3 activity raw data (signal)” value (HDAC3; Conc. 1.00E-05 M, t2) was 68834. The “HDAC3 activity raw data (signal)” value (HDAC3; Conc. 1.11E-06 M, t1) was 407446, the “HDAC3 activity raw data (signal)” value (HDAC3; Conc. 1.11E-06 M, t2) was 414242 and the “HDAC3 activity raw data (signal)” value (HDAC3; Conc. 1.23E-07 M, t1) was 842197. For the same compound, the “HDAC3 activity raw data (signal)” value (HDAC3; Conc. 1.23E-07 M, t2) was 849517, the “HDAC3 activity raw data (signal)” value (HDAC3; Conc. 1.37E-08 M, t1) was 932057 and the “HDAC3 activity raw data (signal)” value (HDAC3; Conc. 1.37E-08 M, t2) was 998355. For the same compound, the “HDAC3 activity raw data (signal)” value (HDAC3; Conc. 1.52E-09 M, t1) was 936917, the “HDAC3 activity raw data (signal)” value (HDAC3; Conc. 1.52E-09 M, t2) was 1040178 and the “HDAC3 activity raw data (signal)” value (HDAC3; Conc. 3.33E-06 M, t1) was 127237. For the same compound, the “HDAC3 activity raw data (signal)” value (HDAC3; Conc. 3.33E-06 M, t2) was 217535, the “HDAC3 activity raw data (signal)” value (HDAC3; Conc. 3.70E-07 M, t1) was 580195 and the “HDAC3 activity raw data (signal)” value (HDAC3; Conc. 3.70E-07 M, t2) was 672322. For the same compound, the “HDAC3 activity raw data (signal)” value (HDAC3; Conc. 4.12E-08 M, t1) was 931839, the “HDAC3 activity raw data (signal)” value (HDAC3; Conc. 4.12E-08 M, t2) was 959771 and the “HDAC3 activity raw data (signal)” value (HDAC3; Conc. 4.57E-09 M, t1) was 999086. The “HDAC3 activity raw data (signal)” value (HDAC3; Conc. 4.57E-09 M, t2) was 1037845, the “HDAC3 activity raw data (signal)” value (HDAC3; Conc. 5.08E-10 M, t1) was 932822 and the “HDAC3 activity raw data (signal)” value (HDAC3; Conc. 5.08E-10 M, t2) was 1013267.
